The conditions of the data set: polymer system of polydimethylsiloxane vinyl terminated at various viscosity and a range of platinum-mono, di, tri and/or tetramethyldisiloxane complex.

Description: The composition for the example may be as follow: polymer part: polydimethylsiloxane, vinyldimethyl terminated, any viscosity; and/or polydimethylsiloxane, vinylmonomethyl terminated, any viscosity. The cross-linker part: polydimethylsiloxane, any viscosity; and or polymonomethylsiloxane, any viscosity. Platinum catalyst part and/or cross-linker part: platinum; and/or platinum-divinyltetramethyldisiloxane complex in xylene, 2-3% Pt; and/or platinum-divinyltetramethyldisiloxane complex in vinyl terminated polydimethylsiloxane, 2-3% Pt; and/or platinum-divinyltetramethyldisiloxane complex in vinyl terminated polydimethylsiloxane, ˜1% Pt; platinum-Cyclovinylmethylsiloxane complex, 2-3% Pt in cyclic vinyl methyl siloxane.
These components may be combined in different ratios to make the polymer. […] The amount of vinyl siloxane cross-linker may determine the rate of the drug release and diffusivity of the polymer to the drug.

For the molecule `CC(=O)O[C@H]1C(=O)[C@@]2(C)[C@H]([C@H](OC(=O)c3ccccc3)[C@]3(O)C[C@H](OC(=O)[C@H](O)[C@@H](NC(=O)c4ccccc4)c4ccccc4)C(C)=C1C3(C)C)[C@]1(OC(C)=O)CO[C@@H]1C[C@@H]2O` [paclitaxel], the release profile entry is recorded as “acceptable”.

The record behind these values is patent publication US8002740B2, “Devices for maintaining patency of surgically created channels in tissue” (Broncus Technologies, Inc., priority 2003, dated 2011).
